# Biological target: T1, TBK1 (Homo sapiens, UniProt Q9UHD2)
# T1 construct: All protein kinases were of human origin and encoded full length proteins, unless indicated otherwise; His6; made in house; host or cells: insect Sf21 cells
# T1 sequence (Q9UHD2 1-729): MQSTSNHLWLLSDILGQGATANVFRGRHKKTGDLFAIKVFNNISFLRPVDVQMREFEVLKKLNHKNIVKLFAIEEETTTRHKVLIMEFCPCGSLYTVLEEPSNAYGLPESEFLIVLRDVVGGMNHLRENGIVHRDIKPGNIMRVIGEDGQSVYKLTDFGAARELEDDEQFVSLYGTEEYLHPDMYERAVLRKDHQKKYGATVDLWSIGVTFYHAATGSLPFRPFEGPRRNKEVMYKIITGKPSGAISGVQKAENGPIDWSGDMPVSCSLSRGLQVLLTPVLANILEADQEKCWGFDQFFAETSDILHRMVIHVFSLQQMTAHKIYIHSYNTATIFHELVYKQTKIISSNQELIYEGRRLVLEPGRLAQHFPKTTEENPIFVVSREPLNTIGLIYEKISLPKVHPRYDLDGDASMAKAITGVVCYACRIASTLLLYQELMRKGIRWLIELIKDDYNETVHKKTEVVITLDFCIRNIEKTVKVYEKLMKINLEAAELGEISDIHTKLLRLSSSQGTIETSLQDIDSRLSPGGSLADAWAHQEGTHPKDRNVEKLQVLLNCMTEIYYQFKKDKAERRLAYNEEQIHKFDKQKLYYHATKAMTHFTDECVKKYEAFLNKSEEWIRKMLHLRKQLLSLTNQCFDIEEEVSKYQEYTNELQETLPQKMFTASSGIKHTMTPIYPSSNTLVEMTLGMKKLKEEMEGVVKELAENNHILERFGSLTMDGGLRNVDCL
# Experiment: TBK1 protein kinase assay ([γ-33P]ATP, P81 filterplates)
# Type: biochemical
# Details: 50 μM ATP; read-out: Potency (TBK1 IC50 potency score)
# In short: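 Human TBK1 assayed for 30 min with peptide substrate (300 μM), 50 μM [γ-33P]ATP and 10 mM magnesium acetate in 50 mM Tris/HCl pH 7.5, 0.1 mM EGTA, 0.1% 2-mercaptoethanol. Stopped with orthophosphoric acid and counted on P81 filters. IC50 from 10 compound concentrations.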
row,Compound,IC50 [nM]
1,"O=C(NCCCNc1nc(Nc2ccc3nccn3c2)ncc1C1CC1)C1CCC1 [Example 186, Cyclobutanecarboxylic acid {3-[5-cyclopropyl-2-(imidazo[1,2-a]pyridin-6-ylamino)-pyrimidin-4-ylamino]-propyl}-amide]",< 100
2,O=C(NCCCNc1nc(Nc2ccc(NCC3CCOCC3)nc2)ncc1C1CC1)C1CCC1 [Example 187],< 100
3,"O=C(NCCCNc1nc(Nc2ccc(OC3CCN(C4CC4)CC3)nc2)ncc1C1CC1)C1CCC1 [Example 188, Cyclobutanecarboxylic acid (3-{5-cyclopropyl-2-[6-(1-cyclopropyl-piperidin-4-yloxy)-pyridin-3-ylamino]-pyrimidin-4-ylamino}-propyl)-amide]",< 100
4,"O=C(NCCCNc1nc(Nc2ccc3ncnn3c2)ncc1C1CC1)C1CCC1 [Example 189, Cyclobutanecarboxylic acid {3-[5-cyclopropyl-2-([1,2,4]triazolo[1,5-a]pyridin-6-ylamino)-pyrimidin-4-ylamino]-propyl}-amide]",< 100
5,"O=C(NCCCNc1nc(Nc2ccc3nccnc3c2)ncc1C1CC1)C1CCC1 [Example 190, Cyclobutanecarboxylic acid {3-[5-cyclopropyl-2-(quinoxalin-6-ylamino)-pyrimidin-4-ylamino]-propyl}-amide]",< 100
6,"O=C(NCCCNc1nc(Nc2ccc3ncccc3c2)ncc1C1CC1)C1CCC1 [Example 191, Cyclobutanecarboxylic acid {3-[5-cyclopropyl-2-(quinolin-6-ylamino)-pyrimidin-4-ylamino]-propyl}-amide]",< 100
7,"O=C(NCCCNc1nc(Nc2cnn(C3CCOCC3)c2)ncc1C1CC1)C1CCC1 [Example 192, Cyclobutanecarboxylic acid (3-{5-cyclopropyl-2-[1-(tetrahydro-pyran-4-yl)-1H-pyrazol-4-ylamino]-pyrimidin-4-ylamino}-propyl)-amide]",< 100
8,"O=C(NCCCNc1nc(Nc2ccc3cnn(CC4CC4)c3c2)ncc1C1CC1)C1CCC1 [Example 193, Cyclobutanecarboxylic acid {3-[5-cyclopropyl-2-(1-cyclopropylmethyl-1H-indazol-6-ylamino)-pyrimidin-4-ylamino]-propyl}-amide]",< 100
9,"O=C(NCCCNc1nc(Nc2ccc3cn(CC4CC4)nc3c2)ncc1C1CC1)C1CCC1 [Example 194, Cyclobutanecarboxylic acid {3-[5-cyclopropyl-2-(2-cyclopropylmethyl-2H-indazol-6-ylamino)-pyrimidin-4-ylamino]-propyl}-amide]",< 100
10,"CN1CCC(Oc2ccc(Nc3ncc(C4CC4)c(NCCCNC(=O)C4CCC4)n3)cn2)CC1 [Example 195, Cyclobutanecarboxylic acid (3-{5-cyclopropyl-2-[6-(1-methyl-piperidin-4-yloxy)-pyridin-3-ylamino]-pyrimidin-4-ylamino}-propyl)-amide]",< 100
11,"CN1CCN(CCOc2ccc(Nc3ncc(C4CC4)c(NCCCNC(=O)C4CCC4)n3)cn2)CC1 [Example 196, Cyclobutanecarboxylic acid [3-(5-cyclopropyl-2-{6-[2-(4-methyl-piperazin-1-yl)-ethoxy]-pyridin-3-ylamino}-pyrimidin-4-ylamino)-propyl]-amide]",< 100
12,"CN1CCc2ccc(Nc3ncc(C4CC4)c(NCCCNC(=O)C4CCC4)n3)cc2C1 [Example 197, Cyclobutanecarboxylic acid {3-[5-cyclopropyl-2-(2-methyl-1,2,3,4-tetrahydro-isoquinolin-7-ylamino)-pyrimidin-4-ylamino]-propyl}-amide]",< 100
13,"Cn1cnc2cc(Nc3ncc(C4CC4)c(NCCCNC(=O)C4CCC4)n3)cnc21 [Example 198, Cyclobutanecarboxylic acid {3-[5-cyclopropyl-2-(3-methyl-3H-imidazo[4,5-b]pyridin-6-ylamino)-pyrimidin-4-ylamino]-propyl}-amide]",< 100
14,"CN1CCc2cc(Nc3ncc(C4CC4)c(NCCCNC(=O)C4CCC4)n3)ccc2C1 [Example 199, Cyclobutanecarboxylic acid {3-[5-cyclopropyl-2-(2-methyl-1,2,3,4-tetrahydro-isoquinolin-6-ylamino)-pyrimidin-4-ylamino]-propyl}-amide]",< 100
15,"Cn1ncc2cc(Nc3ncc(C4CC4)c(NCCCNC(=O)C4CCC4)n3)cnc21 [Example 200, Cyclobutanecarboxylic acid {3-[5-cyclopropyl-2-(1-methyl-1H-pyrazolo[3,4-b]pyridin-5-ylamino)-pyrimidin-4-ylamino]-propyl}-amide]",< 100
16,"O=C(NCCCNc1nc(Nc2cnn(CC3CC3)c2)ncc1C1CC1)C1CCC1 [Example 201, Cyclobutanecarboxylic acid {3-[5-cyclopropyl-2-(1-cyclopropylmethyl-1H-pyrazol-4-ylamino)-pyrimidin-4-ylamino]-propyl}-amide]",< 100
17,"O=C(NCCCNc1nc(Nc2cnn(C3CCC3)c2)ncc1C1CC1)C1CCC1 [Example 202, Cyclobutanecarboxylic acid {3-[2-(1-cyclobutyl-1H-pyrazol-4-ylamino)-5-cyclopropyl-pyrimidin-4-ylamino]-propyl}-amide]",< 100
18,"CC(C)N1CCC(n2cc(Nc3ncc(C4CC4)c(NCCCNC(=O)C4CCC4)n3)cn2)CC1 [Example 203, Cyclobutanecarboxylic acid (3-{5-cyclopropyl-2-[1-(1-isopropyl-piperidin-4-yl)-1H-pyrazol-4-ylamino]-pyrimidin-4-ylamino}-propyl)-amide]",< 100
19,"CNc1ccc(Nc2ncc(C3CC3)c(NCCCNC(=O)C3CCC3)n2)cn1 [Example 204, Cyclobutanecarboxylic acid {3-[5-cyclopropyl-2-(6-methylamino-pyridin-3-ylamino)-pyrimidin-4-ylamino]-propyl}-amide]",< 100

# More lines, now with the values ahead:
row,IC50 [nM],Compound
1,< 100,"CN(C)CCN(C)C(=O)c1ccc(Nc2ncc(C3CC3)c(NCCCNC(=O)C3CCC3)n2)cc1 [Example 176, 4-{4-[3-(Cyclobutanecarbonyl-amino)-propylamino]-5-cyclopropyl-pyrimidin-2-ylamino}-N-(2-dimethylamino-ethyl)-N-methyl-benzamide]"
2,< 100,"O=C(NCCCNc1nc(Nc2ccc(CCO)cc2)ncc1C1CC1)C1CCC1 [Example 177, Cyclobutanecarboxylic acid (3-{5-cyclopropyl-2-[4-(2-hydroxy-ethyl)-phenylamino]-pyrimidin-4-ylamino}-propyl)-amide]"
3,< 100,"O=C(NCCCNc1nc(Nc2ccc3[nH]c(=O)[nH]c3c2)ncc1C1CC1)C1CCC1 [Example 178, Cyclobutanecarboxylic acid {3-[5-cyclopropyl-2-(2-oxo-2,3-dihydro-1H-benzimidazol-5-ylamino)-pyrimidin-4-ylamino]-propyl}-amide]"
4,< 100,"Cn1c(=O)n(C)c2cc(Nc3ncc(C4CC4)c(NCCCNC(=O)C4CCC4)n3)ccc21 [Example 179, Cyclobutanecarboxylic acid {3-[5-cyclopropyl-2-(1,3-dimethyl-2-oxo-2,3-dihydro-1H-benzimidazol-5-ylamino)-pyrimidin-4-ylamino]-propyl}-amide]"
5,< 100,"CN(C)C(=O)c1ccc(Nc2ncc(C3CC3)c(NCCCNC(=O)C3CCC3)n2)cc1 [Example 180, 4-{4-[3-(Cyclobutanecarbonyl-amino)-propylamino]-5-cyclopropyl-pyrimidin-2-ylamino}-N,N-dimethyl-benzamide]"
6,< 100,"O=C(NCCCNc1nc(Nc2ccc(-c3cnco3)cc2)ncc1C1CC1)C1CCC1 [Example 181, Cyclobutanecarboxylic acid {3-[5-cyclopropyl-2-(4-oxazol-5-yl-phenylamino)-pyrimidin-4-ylamino]-propyl}-amide]"
7,< 100,"O=C(NCCCNc1nc(Nc2ccc(Cn3cncn3)cc2)ncc1C1CC1)C1CCC1 [Example 182, Cyclobutanecarboxylic acid {3-[5-cyclopropyl-2-(4-1,2,4-triazol-1-ylmethyl-phenylamino)-pyrimidin-4-ylamino]-propyl}-amide]"
8,< 100,"O=C(NCCCNc1nc(Nc2ccc(CCN3CCCC3)cc2)ncc1C1CC1)C1CCC1 [Example 183, Cyclobutanecarboxylic acid (3-{5-cyclopropyl-2-[4-(2-pyrrolidin-1-yl-ethyl)-phenylamino]-pyrimidin-4-ylamino}-propyl)-amide]"
9,< 100,"O=C(NCCCNc1nc(Nc2ccc(N3CCCC3=O)cc2)ncc1C1CC1)C1CCC1 [Example 184, Cyclobutanecarboxylic acid (3-{5-cyclopropyl-2-[4-(2-oxo-pyrrolidin-1-yl)-phenylamino]-pyrimidin-4-ylamino}-propyl)-amide. xHCl]"
10,< 100,"O=C(NCCCNc1nc(Nc2ccc(-c3cnco3)nc2)ncc1C1CC1)C1CCC1 [Example 185, Cyclobutanecarboxylic acid {3-[5-cyclopropyl-2-(6-oxazol-5-yl-pyridin-3-ylamino)-pyrimidin-4-ylamino]-propyl}-amide]"

# — patent US20100056524A1, “Compound” (priority 2008, published 2010)
